Measured values: PubChem BioAssay (NCI)
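Test compounds were applied to cells in 96-well plates for 48 hours at 5 doses. Abbreviation: GI50, concentration required for 50% inhibition of growth. TGI is the concentration that stops growth completely.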

Experiments:
Test in all cases: inhibition of tumour cell growth, NCI panel, 48 h; in the data active = GI50 below about 0.43 µM; inactive = the rest
MDA-MB-435 = test system: MDA-MB-435
HCC-2998 colon = test system: HCC-2998 colon
HT29 colon = test system: HT29 colon
SF-268 CNS = test system: SF-268 CNS
NCI-H522 lung = test system: NCI-H522 lung
RPMI-8226 leukemia = test system: RPMI-8226 leukemia
KM12 colon = test system: KM12 colon
UACC-62 melanoma = test system: UACC-62 melanoma
A549 NSCLC = test system: A549 NSCLC
COLO 205 colon = test system: COLO 205 colon
SF-539 CNS = test system: SF-539 CNS
HCT-116 colon = test system: HCT-116 colon
LOX IMVI melanoma = test system: LOX IMVI melanoma
SF-295 CNS = test system: SF-295 CNS
SNB-19 CNS = test system: SNB-19 CNS
UO-31 renal = test system: UO-31 renal
TK-10 renal = test system: TK-10 renal
786-0 renal = test system: 786-0 renal
HS 578T breast = test system: HS 578T breast
ACHN renal = test system: ACHN renal
DU-145 prostate = test system: DU-145 prostate
K-562 leukemia = test system: K-562 leukemia
U251 CNS = test system: U251 CNS
HOP-62 NSCLC = test system: HOP-62 NSCLC
CAKI-1 renal = test system: CAKI-1 renal
SN12C renal = test system: SN12C renal
A498 renal = test system: A498 renal
CCRF-CEM leukemia = test system: CCRF-CEM leukemia
T-47D breast = test system: T-47D breast
SNB-75 CNS = test system: SNB-75 CNS
NCI-H23 lung = test system: NCI-H23 lung
SK-OV-3 ovarian = test system: SK-OV-3 ovarian
M14 melanoma = test system: M14 melanoma
HL-60(TB) leukemia = test system: HL-60(TB) leukemia
MALME-3M melanoma = test system: MALME-3M melanoma
OVCAR-5 ovarian = test system: OVCAR-5 ovarian
NCI/ADR-RES ovarian = test system: NCI/ADR-RES ovarian
OVCAR-3 ovarian = test system: OVCAR-3 ovarian
OVCAR-4 ovarian = test system: OVCAR-4 ovarian
MDA-MB-231 breast = test system: MDA-MB-231 breast
NCI-H460 lung = test system: NCI-H460 lung
UACC-257 melanoma = test system: UACC-257 melanoma
NCI-H226 lung = test system: NCI-H226 lung
BT-549 breast = test system: BT-549 breast
SR leukemia = test system: SR leukemia
HCT-15 colon = test system: HCT-15 colon
SK-MEL-2 melanoma = test system: SK-MEL-2 melanoma
IGROV1 ovarian = test system: IGROV1 ovarian
HOP-92 NSCLC = test system: HOP-92 NSCLC
RXF 393 renal = test system: RXF 393 renal
SW-620 colon = test system: SW-620 colon
SK-MEL-5 melanoma = test system: SK-MEL-5 melanoma
PC-3 prostate = test system: PC-3 prostate
MCF7 breast = test system: MCF7 breast
SK-MEL-28 melanoma = test system: SK-MEL-28 melanoma
MOLT-4 leukemia = test system: MOLT-4 leukemia
OVCAR-8 ovarian = test system: OVCAR-8 ovarian
EKVX NSCLC = test system: EKVX NSCLC

CCOC(=O)Nc1nc2c(F)c(F)c(F)cc2s1
inactive: GI50 (MDA-MB-435) > 100 µM | GI50 (HCC-2998 colon) > 100 µM | GI50 (HT29 colon) > 100 µM | GI50 (SF-268 CNS) 43.8 µM | GI50 (NCI-H522 lung) 36.9 µM | GI50 (RPMI-8226 leukemia) > 100 µM | GI50 (KM12 colon) > 100 µM | GI50 (UACC-62 melanoma) 19.7 µM | GI50 (A549 NSCLC) > 100 µM | GI50 (COLO 205 colon) > 100 µM | GI50 (SF-539 CNS) 28.7 µM | GI50 (HCT-116 colon) 58.6 µM | GI50 (LOX IMVI melanoma) > 100 µM | GI50 (SF-295 CNS) 38.8 µM | GI50 (SNB-19 CNS) > 100 µM | GI50 (UO-31 renal) > 100 µM | GI50 (TK-10 renal) > 100 µM | GI50 (786-0 renal) 84.3 µM | GI50 (HS 578T breast) 27.4 µM | GI50 (ACHN renal) > 100 µM | GI50 (DU-145 prostate) 75.1 µM | GI50 (K-562 leukemia) > 100 µM | GI50 (U251 CNS) 36.7 µM | GI50 (HOP-62 NSCLC) 33.9 µM | GI50 (CAKI-1 renal) > 100 µM | GI50 (SN12C renal) > 100 µM | GI50 (A498 renal) 31.8 µM | GI50 (CCRF-CEM leukemia) > 100 µM | GI50 (T-47D breast) 61.8 µM | GI50 (SNB-75 CNS) 23.4 µM | GI50 (NCI-H23 lung) 89 µM | GI50 (SK-OV-3 ovarian) 45.2 µM | GI50 (M14 melanoma) > 100 µM | GI50 (HL-60(TB) leukemia) > 100 µM | GI50 (MALME-3M melanoma) > 100 µM | GI50 (OVCAR-5 ovarian) > 100 µM | GI50 (NCI/ADR-RES ovarian) > 100 µM | GI50 (OVCAR-3 ovarian) 75.1 µM | GI50 (OVCAR-4 ovarian) 37.5 µM | GI50 (MDA-MB-231 breast) 36.2 µM | GI50 (NCI-H460 lung) 71.9 µM | GI50 (UACC-257 melanoma) > 100 µM | GI50 (NCI-H226 lung) 46 µM | GI50 (BT-549 breast) 58.3 µM | GI50 (SR leukemia) > 100 µM | GI50 (HCT-15 colon) > 100 µM | GI50 (SK-MEL-2 melanoma) 53.1 µM | GI50 (IGROV1 ovarian) > 100 µM | GI50 (HOP-92 NSCLC) 15.4 µM | GI50 (RXF 393 renal) 29.6 µM | GI50 (SW-620 colon) > 100 µM | GI50 (SK-MEL-5 melanoma) > 100 µM | GI50 (PC-3 prostate) > 100 µM | GI50 (MCF7 breast) > 100 µM | GI50 (SK-MEL-28 melanoma) > 100 µM | GI50 (MOLT-4 leukemia) > 100 µM | GI50 (OVCAR-8 ovarian) 48.1 µM
94.4 µM: TGI (SNB-75 CNS)
98.2 µM: TGI (SF-539 CNS)
> 100 µM: TGI (MDA-MB-435) | TGI (HCC-2998 colon) | TGI (HT29 colon) | TGI (SF-268 CNS) | TGI (NCI-H522 lung) | TGI (RPMI-8226 leukemia) | TGI (KM12 colon) | TGI (UACC-62 melanoma) | TGI (A549 NSCLC) | TGI (COLO 205 colon) | TGI (HCT-116 colon) | TGI (LOX IMVI melanoma) | TGI (SF-295 CNS) | TGI (SNB-19 CNS) | TGI (UO-31 renal) | TGI (TK-10 renal) | TGI (786-0 renal) | TGI (HS 578T breast) | TGI (ACHN renal) | TGI (DU-145 prostate) | TGI (K-562 leukemia) | TGI (U251 CNS) | TGI (HOP-62 NSCLC) | TGI (CAKI-1 renal) | TGI (SN12C renal) | TGI (A498 renal) | TGI (CCRF-CEM leukemia) | TGI (T-47D breast) | TGI (NCI-H23 lung) | TGI (SK-OV-3 ovarian) | TGI (M14 melanoma) | TGI (HL-60(TB) leukemia) | TGI (MALME-3M melanoma) | TGI (OVCAR-5 ovarian) | TGI (NCI/ADR-RES ovarian) | TGI (OVCAR-3 ovarian) | TGI (OVCAR-4 ovarian) | TGI (MDA-MB-231 breast) | TGI (NCI-H460 lung) | TGI (UACC-257 melanoma) | TGI (NCI-H226 lung) | TGI (BT-549 breast) | TGI (SR leukemia) | TGI (HCT-15 colon) | TGI (SK-MEL-2 melanoma) | TGI (IGROV1 ovarian) | TGI (RXF 393 renal) | TGI (SW-620 colon) | TGI (SK-MEL-5 melanoma) | TGI (PC-3 prostate) | TGI (MCF7 breast) | TGI (SK-MEL-28 melanoma) | TGI (MOLT-4 leukemia) | TGI (OVCAR-8 ovarian)
97.5 µM: TGI (HOP-92 NSCLC)

CCOC(OCC)C(CCc1ccccc1)c1c(N)nc(N)[nH]c1=O (stereo not given)
90.7 µM: TGI (SK-OV-3 ovarian)
49.3 µM: TGI (COLO 205 colon)
73.3 µM: TGI (OVCAR-5 ovarian)
84.7 µM: TGI (K-562 leukemia)
> 100 µM: TGI (MDA-MB-435) | TGI (HCC-2998 colon) | TGI (HT29 colon) | TGI (SF-268 CNS) | TGI (RPMI-8226 leukemia) | TGI (KM12 colon) | TGI (UACC-62 melanoma) | TGI (A549 NSCLC) | TGI (SF-539 CNS) | TGI (HCT-116 colon) | TGI (LOX IMVI melanoma) | TGI (SF-295 CNS) | TGI (SNB-19 CNS) | TGI (UO-31 renal) | TGI (TK-10 renal) | TGI (786-0 renal) | TGI (HS 578T breast) | TGI (DU-145 prostate) | TGI (U251 CNS) | TGI (HOP-62 NSCLC) | TGI (CAKI-1 renal) | TGI (SN12C renal) | TGI (A498 renal) | TGI (CCRF-CEM leukemia) | TGI (T-47D breast) | TGI (SNB-75 CNS) | TGI (NCI-H23 lung) | TGI (M14 melanoma) | TGI (HL-60(TB) leukemia) | TGI (MALME-3M melanoma) | TGI (NCI/ADR-RES ovarian) | TGI (OVCAR-3 ovarian) | TGI (OVCAR-4 ovarian) | TGI (MDA-MB-231 breast) | TGI (NCI-H460 lung) | TGI (UACC-257 melanoma) | TGI (NCI-H226 lung) | TGI (BT-549 breast) | TGI (SR leukemia) | TGI (HCT-15 colon) | TGI (SK-MEL-2 melanoma) | TGI (IGROV1 ovarian) | TGI (RXF 393 renal) | TGI (SW-620 colon) | TGI (SK-MEL-5 melanoma) | TGI (PC-3 prostate) | TGI (MCF7 breast) | TGI (SK-MEL-28 melanoma) | TGI (MOLT-4 leukemia) | TGI (OVCAR-8 ovarian)
86.8 µM: TGI (HOP-92 NSCLC)
22.3 µM: TGI (EKVX NSCLC)
